How the values were obtained:
[1] = tested on: Clostridium histolyticum collagenase (type IA); test: Anti-collagenase activity, FALGPA degradation followed by UHPLC; assay type: biochemical; settings: 25 μM; for Residual activity, ActR (%) of collagenase: 30 minutes
Procedure: FDTA-I and FDTA-II were purified from stimulated roots of Sanguisorba officinalis, where the plant has been stimulated by using a nutrient medium without nitrogen (N/P/K 0/15/40) for 1 to 3 weeks. 10 g of dried and grinded (1 mm) roots were macerated in 100 ml of ethyl acetate for 24 h at 50° C. The purified fraction of FDTA-I and FDTA-II was obtained by preparative HPLC and characterized by mass spectrometry. Ferulic acid and TA have been purchased commercially. In addition, it was also included in the test ziyuglycoside I, an active compound isolated from Sanguisorba officinalis roots known to hold various activities including increased expression of type I collagen. For the comparison, SORE was obtained as presented in example 1. The anti-collagenase inhibiting activity was measured by following the kinetics of collagenase-driven degradation of collagenase substrate: FALGPA (N-[3-(2-Furyl) acryloyl]-Leu-Gly-Pro-Ala) into FAL (N-[3-(2-Furyl) acryloyl]-Leu) and Gly-Pro-Ala.
Briefly, a volume of 100 μL of 1.5 mM solution of FALGPA in 50 mM tricine buffer with 10 mM calcium chloride and 400 mM sodium chloride, pH 7.5 (Bachem, 4006713.0025) was mixed with a volume of 10 μL of test sample or pure solvent of the test sample (positive control), followed by a volume of 10 μL of 0.05 mg/ml of Clostridium histolyticum collagenase (type IA, Sigma-Aldrich, C9891). To determine the rate of enzymatic conversion, the content of FAL was quantified at the beginning of the reaction and 30 minutes after its initialization by stopping the enzymatic conversion of FALGPA by EDTA. To quench the enzymatic conversion, a volume of 50 μL of the test sample was mixed with a volume of 50 μL of EDTA (0.2 M in water). The content of FAL in the samples was then quantified by UHPLC method optimized to separate FALGPA and FAL. The analysis was conducted using Kinetex Biphenyl reverse phase column (150 mm×2.1 mm, 2.6 μm, Phenomenex, Torrance, USA), maintained at 40° C. The mobile phase was composed of water containing 0.1% vol. of formic acid (A) and pure acetonitrile (B), delivered at 0.5 ml/min with the gradient of B phase as follows: 5-41% (0-9 min); 41-90% (9-9.05 min); hold at 90% (9.05-11.50 min); 90-5% (11.50-11.55 min), hold at 5% (11.55-14.50 min). Sample injection volume was 5 μL and FALGPA/FAL detection at 338 nm. Residual activity and the inhibition degree of collagenase in the presence of test sample X was then calculated using the following equation: […]
ActR %—residual activity; Inh %—inhibition degree; AUC—peak area of FAL; EchX tested sample; BL—blank.

[2] = tested on: bovine hyaluronidase, Type IS; test: Anti-hyaluronidase activity, intact hyaluronic acid by BSA turbidity at 600 nm; assay type: biochemical; settings: 15 μM
Procedure: FDTA-I and FDTA-II were purified from stimulated roots of Sanguisorba officinalis as described in example 10. In addition, ziyuglycoside I was also included in the test. For the comparison, SORE was prepared as presented in example 1.
Hyaluronidase catalyzes the degradation reaction of hyaluronic acid (HA). The test is based on the quantification of intact HA content in the presence/absence of an extract of interest and/or compounds of interest. The degradation rate of HA content is proportional to enzymatic activity of hyaluronidase and inversely proportional to the inhibition power of the extract.
The reaction mixture was prepared as follows: 37.5 μL of 20 mM PHB buffer pH 7, 187.5 μL of hyaluronidase solution (bovine hyaluronidase, Type IS, Sigma) 0.02 mg/mL, and 25 μL of sample (SORE or pure FDTA-I and FDTA-II to be tested). In the case of table 13, the pure FDTA-I and FDTA-II as well as SORE were in pure propane-1,3-diol. In the case of table 14, the pure FDTA-I and FDTA-II were in 100% ethanol. The mixture was incubated for 10 minutes at room temperature and then 250 μL of HA substrate (0.3 mg/mL in phosphate buffer) are added to initiate the reaction. Incubation is done in a Thermomixer at 37° C., under agitation (450 rpm). The reaction was monitored for 60 minutes with a sampling of the reaction mix (50 μL) every 15 minutes. These samples were inserted into the wells of a microplate containing 200 μL of BSA solution 0.1% pH 3.75 and incubated in BSA for 10 minutes. The HA formed aggregates with the BSA solution which precipitates. Thus, the amount of precipitating BSA was proportional to the optical density at 600 nm which allows to monitor the enzymatic reaction. The microplate was finally inserted into the spectrophotometer and the optical density was measured at this wavelength.

[3] = mouse, in vivo; cited from earlier work
[4] = sample in 100% ethanol (table 14)
[5] = sample in pure propane-1,3-diol (table 13)

Row | Compound | inhibition of collagenase IA (Inh %) [1] | Residual activity, ActR (%) of collagenase [1] | effect on hyaluronidase, in words ([2]; comment on table 13) | effect on hyaluronidase, in words ([2]; comment on table 14) | Residual activity of hyaluronidase (%) [2, 4] | Residual activity of hyaluronidase (%) [2, 5] | toxicity in mice [3]
1 | COc1cc(/C=C/C(=O)OC2C(O)CC3(C)C(CCC4(C)C3CC=C3C5C(C(=O)O)(CCC(C)C5(C)O)CCC34C)C2(C)C)ccc1O (centres unmarked) [FDTA-I, feruloylated derivative of tormentic acid] | 76% | 24% | acted as a hyaluronidase inhibitor | acted as hyaluronidase inhibitors | 69% | 9.5% | –
2 | COc1cc(/C=C/C(=O)OC2C(O)CC3(C)C(CCC4(C)C3CC=C3C5C(C)C(C)CCC5(C(=O)O)CCC34C)C2(C)C)ccc1O (centres unmarked) [FDTA-II, feruloylated derivative of deoxy-tormentic acid] | 36% | 64% | – | acted as hyaluronidase inhibitors | 89% | – | –
3 | COc1cc(/C=C/C(=O)O)ccc1O [Ferulic acid, ferulic acid] | do not have any effect | 96% | did not have any effect | – | – | 103% | –
4 | C[C@@H]1CC[C@]2(C(=O)O)CC[C@]3(C)C(=CC[C@@H]4[C@@]5(C)C[C@@H](O)[C@H](O)C(C)(C)[C@@H]5CC[C@]43C)[C@@H]2[C@]1(C)O [TA, tormentic acid] | do not have any effect | 98% | did not have any effect | – | – | 98% | –
5 | C[C@@H]1CC[C@]2(C(=O)O[C@@H]3O[C@H](CO)[C@@H](O)[C@H](O)[C@H]3O)CC[C@]3(C)C(=CC[C@@H]4[C@@]5(C)CC[C@H](O[C@@H]6OC[C@H](O)[C@H](O)[C@H]6O)C(C)(C)[C@@H]5CC[C@]43C)[C@@H]2[C@]1(C)O [Ziyuglycoside I] | did not have any enzymatic inhibitory effect | 106% | – | did not have any effect | 107% | – | –
6 | Oryzanol | – | – | – | – | – | – | did not demonstrate any toxicity

From patent US20260199224A1, “Compositions comprising Sanguisorba officinalis root extract and uses thereof” (Clariant International Ltd, priority 2022, published 2026)
